According to patent publication US11427553B2, “Dihydrooxadiazinones” (Bayer Aktiengesellschaft, priority 2017, dated 2022):
Where a name gives a salt, the structure may show the parent alone.

Key:
human full length PDE3B = human full length PDE3B (Homo sapiens (Human), UniProt Q13370); assay: Assay 5 PDE3B enzyme inhibition (3H-cAMP SPA); type: biochemical; settings: Sf9 cell extract
How it was run: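 Hydrolysis of tritiated cAMP by Sf9-expressed full-length human PDE3B proceeded 60 min at room temperature in Tris buffer pH 7.5 containing Mg2+, EDTA and BSA, with enzyme dilution keeping substrate consumption below 70%. IC50 derived from percent activity versus log compound concentration.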

human full length PDE3A = human full length PDE3A (Homo sapiens (Human), UniProt Q14432); assay: Assay 4 PDE3A enzyme inhibition (3H-cAMP SPA); type: biochemical; settings: Sf9 cell extract
How it was run: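 Enzyme: Sf9 extract with overexpressed full-length PDE3A; substrate [8-3H]cAMP, 0.025 μCi/well; 60 min, room temperature, Tris/HCl pH 7.5 buffer with MgCl2, EDTA, BSA.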

HeLa cells = assay: Assay 1 cell proliferation measurement (CTG, 72 h), HeLa; type: cell-based, human; settings: Homo sapiens, HeLa; Assay 1, 72 h, Cell Titer Glo; read-out: HeLa IC50 [nM] (Cervical cancer)
How it was run: (§1)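 Growth inhibition relative to a 0 h baseline plate and 0.3% DMSO control, with IC50 fitted by 4-parameter curve. Compound exposure lasted 72 h at 37 °C across a 2.5-fold, 10-step series starting generally at 100 nM final.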

SK-MEL-3 cells = assay: Assay 1 cell proliferation measurement (CTG, 72 h), SK-MEL-3; type: cell-based, human; settings: Homo sapiens, SK-MEL3; Assay 1, 72 h, Cell Titer Glo; read-out: SK-MEL-3 IC50 [nM] (melanoma)
How it was run: as §1

human full length PDE3A, sequence (Q14432 whole entry): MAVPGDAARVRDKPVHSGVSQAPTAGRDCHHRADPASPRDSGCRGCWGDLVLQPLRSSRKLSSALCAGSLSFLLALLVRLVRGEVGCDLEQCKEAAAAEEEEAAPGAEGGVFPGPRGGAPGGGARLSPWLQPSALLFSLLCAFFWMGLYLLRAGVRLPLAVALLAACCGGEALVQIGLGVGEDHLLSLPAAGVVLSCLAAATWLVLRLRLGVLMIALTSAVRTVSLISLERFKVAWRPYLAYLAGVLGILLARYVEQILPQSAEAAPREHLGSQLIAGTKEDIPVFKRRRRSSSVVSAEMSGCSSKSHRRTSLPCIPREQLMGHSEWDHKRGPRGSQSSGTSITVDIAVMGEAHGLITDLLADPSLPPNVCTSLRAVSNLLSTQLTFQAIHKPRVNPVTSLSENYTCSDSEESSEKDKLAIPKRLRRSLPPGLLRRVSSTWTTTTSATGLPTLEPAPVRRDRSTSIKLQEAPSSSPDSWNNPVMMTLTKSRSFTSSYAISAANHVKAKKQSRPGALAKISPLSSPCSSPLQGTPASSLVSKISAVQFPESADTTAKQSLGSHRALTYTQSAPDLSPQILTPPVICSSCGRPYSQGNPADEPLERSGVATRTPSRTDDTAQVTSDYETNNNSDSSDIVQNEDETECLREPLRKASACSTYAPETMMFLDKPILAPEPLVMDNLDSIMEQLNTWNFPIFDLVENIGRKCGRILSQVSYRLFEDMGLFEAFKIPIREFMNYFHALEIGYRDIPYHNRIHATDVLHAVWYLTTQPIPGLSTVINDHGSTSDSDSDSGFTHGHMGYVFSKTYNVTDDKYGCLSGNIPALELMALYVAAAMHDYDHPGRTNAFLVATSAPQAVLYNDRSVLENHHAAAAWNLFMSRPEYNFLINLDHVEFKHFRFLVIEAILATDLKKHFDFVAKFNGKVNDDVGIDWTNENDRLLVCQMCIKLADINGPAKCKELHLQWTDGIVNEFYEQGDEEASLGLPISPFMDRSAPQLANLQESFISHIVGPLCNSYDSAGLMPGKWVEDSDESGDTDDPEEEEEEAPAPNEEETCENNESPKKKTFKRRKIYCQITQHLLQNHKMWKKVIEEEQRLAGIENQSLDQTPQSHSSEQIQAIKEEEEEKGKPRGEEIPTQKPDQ
human full length PDE3B, sequence (Q13370 whole entry): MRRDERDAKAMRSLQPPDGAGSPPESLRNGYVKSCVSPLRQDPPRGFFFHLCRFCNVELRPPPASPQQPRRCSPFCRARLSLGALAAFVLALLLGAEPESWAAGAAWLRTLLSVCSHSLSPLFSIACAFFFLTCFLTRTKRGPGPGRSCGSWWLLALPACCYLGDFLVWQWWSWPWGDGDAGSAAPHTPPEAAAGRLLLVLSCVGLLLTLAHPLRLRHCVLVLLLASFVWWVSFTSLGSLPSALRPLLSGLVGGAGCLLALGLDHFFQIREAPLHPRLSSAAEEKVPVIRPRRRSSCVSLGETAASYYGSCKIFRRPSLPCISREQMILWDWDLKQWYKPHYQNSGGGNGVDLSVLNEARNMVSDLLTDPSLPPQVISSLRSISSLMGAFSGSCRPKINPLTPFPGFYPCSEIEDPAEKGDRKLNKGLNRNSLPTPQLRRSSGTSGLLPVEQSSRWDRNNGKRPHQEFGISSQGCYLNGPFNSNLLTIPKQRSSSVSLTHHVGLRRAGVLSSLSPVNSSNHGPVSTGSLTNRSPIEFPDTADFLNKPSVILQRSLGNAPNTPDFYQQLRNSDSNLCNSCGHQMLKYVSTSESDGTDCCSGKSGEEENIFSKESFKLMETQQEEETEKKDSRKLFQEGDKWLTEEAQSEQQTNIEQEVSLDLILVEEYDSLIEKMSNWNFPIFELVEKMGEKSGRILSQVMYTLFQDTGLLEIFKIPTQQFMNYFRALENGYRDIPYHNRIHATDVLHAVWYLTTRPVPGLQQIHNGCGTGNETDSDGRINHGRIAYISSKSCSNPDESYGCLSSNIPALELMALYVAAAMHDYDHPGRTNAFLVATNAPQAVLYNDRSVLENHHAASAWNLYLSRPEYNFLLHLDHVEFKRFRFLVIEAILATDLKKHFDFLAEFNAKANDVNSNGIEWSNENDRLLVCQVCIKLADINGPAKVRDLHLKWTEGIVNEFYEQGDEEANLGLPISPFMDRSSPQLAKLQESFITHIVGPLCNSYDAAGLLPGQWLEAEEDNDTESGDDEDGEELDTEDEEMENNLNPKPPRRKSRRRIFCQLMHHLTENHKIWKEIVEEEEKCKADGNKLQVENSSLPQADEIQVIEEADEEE

Row | IC50 (human full length PDE3B) [nM] | IC50 (human full length PDE3A) [nM] | IC50 (HeLa cells) [nM] | IC50 (SK-MEL-3 cells) [nM] | Compound
1 | 76 | 79 | 16 | 35 | COc1ccccc1-c1ccc(C2=NNC(=O)OC2)cc1F [Example 116, 5-(2-Fluoro-2′-methoxy[1,1′-biphenyl]-4-yl)-3,6-dihydro-2H-1,3,4-oxadiazin-2-one]
2 | 77 | 86 | 3 | 9 | O=C1NN=C(c2ccc(C3=CCCC3)c(C(F)F)c2)CO1 [Example 201, 5-[4-(Cyclopent-1-en-1-yl)-3-(difluoromethyl)phenyl]-3,6-dihydro-2H-1,3,4-oxadiazin-2-one]
3 | 40 | 31 | 14 | 28 | Cc1ncc(-c2ccc(C3=NNC(=O)OC3)cc2C)cn1 [Example 28, 5-[3-Methyl-4-(2-methylpyrimidin-5-yl)phenyl]-3,6-dihydro-2H-1,3,4-oxadiazin-2-one]
4 | > 1000 | > 1000 | 27 | 47 | O=C1NN=C(c2ccc(-c3ccccn3)c(C(F)(F)F)c2)CO1 [Example 160, 5-[4-(Pyridin-2-yl)-3-(trifluoromethyl)phenyl]-3,6-dihydro-2H-1,3,4-oxadiazin-2-one]
5 | 200 | 150 | 7 | 19 | O=C1NN=C(c2ccc(-c3cccc(F)c3)c(C(F)(F)F)c2)CO1 [Example 138, 5-[3′-Fluoro-2-(trifluoromethyl)biphenyl-4-yl]-3,6-dihydro-2H-1,3,4-oxadiazin-2-one]
6 | 93 | 100 | 41 | 64 | O=C1NN=C(c2ccc(C3=CCOC3)c(C(F)F)c2)CO1 [Example 329, 5-[3-(difluoromethyl)-4-(2,5-dihydrofuran-3-yl)phenyl]-3,6-dihydro-2H-1,3,4-oxadiazin-2-one]
7 | 100 | 88 | 5 | 11 | O=C1NN=C(c2ccc(-c3ccc(F)c(F)c3F)c(F)c2)CO1 [Example 99, 5-(2,2′,3′,4′-Tetrafluoro[1,1′-biphenyl]-4-yl)-3,6-dihydro-2H-1,3,4-oxadiazin-2-one]
8 | 600 | 550 | 38 | > 100 | O=C1NN=C(c2ccc(N[C@H]3CCC[C@H]3O)c(C(F)(F)F)c2)CO1 [Example 261, 5-[4-{[(1S,2R)-2-Hydroxycyclopentyl]amino}-3-(trifluoromethyl)phenyl]-3,6-dihydro-2H-1,3,4-oxadiazin-2-one]
9 | 32 | 46 | 4 | 9 | O=C1NN=C(c2ccc(-c3cccc(F)c3F)c(F)c2)CO1 [Example 109, 5-(2,2′,3′-Trifluoro[1,1′-biphenyl]-4-yl)-3,6-dihydro-2H-1,3,4-oxadiazin-2-one]
10 | 780 | 580 | > 100 | > 100 | NC1CCCC(Nc2ccc(C3=NNC(=O)OC3)cc2C(F)(F)F)C1 (mixture of isomers) [Example 322, 5-[4-{[3-aminocyclohexyl]amino}-3-(trifluoromethyl)phenyl]-3,6-dihydro-2H-1,3,4-oxadiazin-2-one (mixture of stereoisomers)]
11 | 400 | 300 | 19 | 31 | NCCNc1ccc(C2=NNC(=O)OC2)cc1C(F)(F)F [Example 274, 5-{4-[(2-Aminoethyl)amino]-3-(trifluoromethyl)phenyl}-3,6-dihydro-2H-1,3,4-oxadiazin-2-one-salt with hydrochloric acid]
12 | 100 | 92 | 4 | 7 | O=C1NN=C(c2ccc(-c3c(F)cccc3F)c(F)c2)CO1 [Example 115, 5-(2,2′,6′-Trifluoro[1,1′-biphenyl]-4-yl)-3,6-dihydro-2H-1,3,4-oxadiazin-2-one]
13 | > 1000 | > 1000 | 56 | > 100 | O=C1NN=C(c2ccc(F)c(C(F)(F)F)c2)CO1 [Intermediate 66, 5-[4-Fluoro-3-(trifluoromethyl)phenyl]-3,6-dihydro-2H-1,3,4-oxadiazin-2-one]
14 | 34 | 43 | 3 | 4 | Cn1cc(-c2ccc(C3=NNC(=O)OC3)cc2C(F)(F)F)cn1 [Example 45, 5-[4-(1-Methyl-1H-pyrazol-4-yl)-3-(trifluoromethyl)phenyl]-3,6-dihydro-2H-1,3,4-oxadiazin-2-one]
15 | 260 | 210 | 83 | > 100 | Nc1cc(-c2ccc(C3=NNC(=O)OC3)cc2C(F)(F)F)c(F)cc1F [Example 38, 5-[5′-Amino-2′,4′-difluoro-2-(trifluoromethyl)biphenyl-4-yl]-3,6-dihydro-2H-1,3,4-oxadiazin-2-one]
16 | 64 | 29 | 5 | 7 | NC12CC1CN(c1ccc(C3=NNC(=O)OC3)cc1C(F)(F)F)C2 (racemic) [Example 275, (rac)-5-{4-[1-amino-3-azabicyclo[3.1.0]hexan-3-yl]-3-(trifluoromethyl)phenyl}-3,6-dihydro-2H-1,3,4-oxadiazin-2-one-salt with hydrochloric acid]
17 | 500 | 290 | > 100 | 54 | CC(C)(N)CNc1ccc(C2=NNC(=O)OC2)cc1C(F)(F)F [Example 321, 5-{4-[(2-amino-2-methylpropyl)amino]-3-(trifluoromethyl)phenyl}-3,6-dihydro-2H-1,3,4-oxadiazin-2-one]
18 | 26 | 15 | 4 | 7 | CC(C)n1cc(-c2ccc(C3=NNC(=O)OC3)cc2C(F)(F)F)cn1 [Example 153, 5-{4-[1-(Propan-2-yl)-1H-pyrazol-4-yl]-3-(trifluoromethyl)phenyl}-3,6-dihydro-2H-1,3,4-oxadiazin-2-one]
19 | 170 | 200 | 15 | 22 | Cc1cnccc1-c1ccc(C2=NNC(=O)O[C@H]2C)cc1C(F)(F)F [Example 183, (6S)-6-Methyl-5-[4-(3-methylpyridin-4-yl)-3-(trifluoromethyl)phenyl]-3,6-dihydro-2H-1,3,4-oxadiazin-2-one]
20 | 71 | 29 | 12 | 25 | Cc1cc(-c2ccc(C3=NNC(=O)OC3)cc2F)ccn1 [Example 79, 5-[3-Fluoro-4-(2-methylpyridin-4-yl)phenyl]-3,6-dihydro-2H-1,3,4-oxadiazin-2-one]
21 | 110 | 92 | 9 | 17 | O=C1NN=C(c2ccc(-c3ccccc3F)c(C(F)(F)F)c2)CO1 [Example 155, 5-[2′-Fluoro-2-(trifluoromethyl)[1,1′-biphenyl]-4-yl]-3,6-dihydro-2H-1,3,4-oxadiazin-2-one]
22 | 520 | 290 | 37 | 48 | C[C@@H]1OC(=O)NN=C1c1ccc(-c2ccccc2C#N)c(C(F)(F)F)c1 [Example 172, 4′-[(6S)-6-Methyl-2-oxo-3,6-dihydro-2H-1,3,4-oxadiazin-5-yl]-2′-(trifluoromethyl)[1,1′-biphenyl]-2-carbonitrile]
23 | 100 | 42 | 11 | 23 | CCCCCNc1ccc(C2=NNC(=O)OC2)cc1C(F)(F)F [Example 74, 5-[4-(Pentylamino)-3-(trifluoromethyl)phenyl]-3,6-dihydro-2H-1,3,4-oxadiazin-2-one]
24 | 180 | 74 | 9 | 14 | CC1CC(C)N1c1ccc(C2=NNC(=O)OC2)cc1C(F)(F)F (racemic) [Example 207, (rac)-5-{4-[2,4-Dimethylazetidin-1-yl]-3-(trifluoromethyl)phenyl}-3,6-dihydro-2H-1,3,4-oxadiazin-2-one]
25 | 30 | 17 | > 100 | > 100 | Cc1nc2cc(-c3ccc(C4=NNC(=O)OC4)cc3C(F)(F)F)ccc2[nH]1 [Example 326, 5-[4-(2-methyl-1H-benzimidazol-5-yl)-3-(trifluoromethyl)phenyl]-3,6-dihydro-2H-1,3,4-oxadiazin-2-one]
26 | 33 | 52 | 26 | 51 | N#Cc1cc(C2=NNC(=O)OC2)ccc1N1CCOCC1 [Example 22, 2-(Morpholin-4-yl)-5-(2-oxo-3,6-dihydro-2H-1,3,4-oxadiazin-5-yl)benzonitrile]
27 | 56 | 28 | 1 | 2 | CC(C)CNc1ccc(C2=NNC(=O)OC2)cc1C(F)(F)F [Example 221, 5-{4-[(2-Methylpropyl)amino]-3-(trifluoromethyl)phenyl}-3,6-dihydro-2H-1,3,4-oxadiazin-2-one]
28 | 100 | 34 | 6 | 11 | C[C@@H]1OC(=O)NN=C1c1ccc(Cl)c(C(F)(F)F)c1 [Intermediate 74, (6S)-5-[4-chloro-3-(trifluoromethyl)phenyl]-6-methyl-3,6-dihydro-2H-1,3,4-oxadiazin-2-one]
